A word on the Ki: it is a measure of affinity in units of concentration, obtained from inhibition or displacement.

We go through 51 molecules from patent publication US7612065B2, “Inhibitors of c-JUN N-terminal kinases (JNK)” (priority 2007, dated 2009).

The structures appear in SMILES notation. Bounds are passed on as bounds.

The assay concerns the target T1, JNK3 (Homo sapiens, UniProt P53779).
T1 construct: One such construct encodes amino acid residues Ser40-Glu402 of JNK3α1 and is preceded by Met and Gly residues; Met-Gly (initiation methionine plus glycine added for the NcoI site); made in house; host or cells: E. coli BL21 (DE3)
The experiment in a line: JNK inhibition assay: spectrophotometric coupled-enzyme assay with activated JNK3. Format: biochemical. The settings on record: activated JNK3 10 nM, 10 μM ATP, 200 μM EGF receptor peptide, 30° C., competitive inhibition model. The text has this: A BLAST search of the EST database using the published JNK3α1 cDNA as a query identified an EST clone (#632588) that contained the entire coding sequence for human JNK3α1. Polymerase chain reactions (PCR) using pfu polymerase (Strategene) were used to introduce restriction sites into the cDNA for cloning into the pET-15B expression vector at the NcoI and BamHI sites. The protein was expressed in E. coli. […] This truncation corresponds to Ser 2 of JNK1 and JNK2 proteins, and is preceded by a methionine (initiation) and a glycine residue. The glycine residue was added in order to introduce an NcoI site for cloning into the expression vector. In addition, systematic C-terminal truncations were performed by PCR to identify a construct that give rise to diffraction-quality crystals.
5 mg of JNK3 was diluted to 0.5 mg/ml in 50 mM HEPES buffer, pH 7.5, containing 100 mM NaCl, 5 mM DTT, 20 mM MgCl2 and 1 mM ATP. GST-MKK7(DD) was added at a molar ratio of 1:2.5 GST-MKK7:JNK3. After incubation for 30 minutes at 25° C., the reaction mixture was concentrated 5-fold by ultrafiltration in a Centriprep-30 (Amicon, Beverly, Mass.), diluted to 10 ml and an additional 1 mM ATP added. This procedure was repeated three times to remove ADP and replenish ATP. The final addition of ATP was 5 mM and the mixture incubated overnight at 4° C.
The activated JNK3/GST-MKK7(DD) reaction mixture was exchanged into 50 mM HEPES buffer, pH 7.5, containing 5 mM DTT and 5% glycerol (w/v) by dialysis or ultrafiltration. The reaction mixture was adjusted to 1.1 M potassium phosphate, pH 7.5, and purified by hydrophobic interaction chromatography (at 25° C.) using a Rainin Hydropore column. […] Activated JNK3 (i.e. doubly phosphorylated JNK3) was stored at −70° C. at 0.25-1 mg/ml.
Compounds were assayed for the inhibition of JNK3 by a spectrophotometric coupled-enzyme assay. In this assay, a fixed concentration of activated JNK3 (10 nM) was incubated with various concentrations of a potential inhibitor dissolved in DMSO for 10 minutes at 30° C. in a buffer containing 0.1 M HEPES buffer, pH 7.5, containing 10 mM MgCl2, 2.5 mM phosphoenolpyruvate, 200 μM NADH, 150 μg/mL pyruvate kinase, 50 μg/mL lactate dehydrogenase, and 200 μM EGF receptor peptide. […] The reaction was initiated by the addition of 10 μM ATP and the assay plate is inserted into the spectrophotometer's assay plate compartment that was maintained at 30° C. The decrease of absorbance at 340 nm was monitored as a function of time. The rate data as a function of inhibitor concentration was fitted to competitive inhibition kinetic model to determine the Ki.

T1 sequence (P53779 40-402): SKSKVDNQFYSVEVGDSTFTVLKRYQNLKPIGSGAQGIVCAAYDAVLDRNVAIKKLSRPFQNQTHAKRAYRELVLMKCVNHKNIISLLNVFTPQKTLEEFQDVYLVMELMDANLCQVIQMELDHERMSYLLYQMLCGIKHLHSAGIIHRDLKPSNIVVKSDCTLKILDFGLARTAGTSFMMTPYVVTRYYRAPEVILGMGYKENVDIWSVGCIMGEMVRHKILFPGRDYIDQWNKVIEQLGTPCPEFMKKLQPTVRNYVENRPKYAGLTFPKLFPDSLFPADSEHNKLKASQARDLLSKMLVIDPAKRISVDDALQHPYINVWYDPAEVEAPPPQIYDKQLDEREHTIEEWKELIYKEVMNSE

For the molecule `O=C1/C(=N\O)c2c(Cl)cc(Cl)cc2N1Cc1cc(F)cc2c1OCOC2` [Compound 196], the Ki is < 1000 nM.

`COc1cc(CN2C(=O)/C(=N\O)c3ccc([N+](=O)[O-])cc32)cc(OC)c1` [Compound 198]: the inhibitory constant (Ki) was ≥ 1000 nM. Consider `COc1cc(CN2C(=O)/C(=N\O)c3c(Br)cccc32)cc(OC)c1` [Compound 199], for which the Ki was < 1000 nM. Then `COc1cc(CN2C(=O)/C(=N\O)c3c(-c4ccccc4)cccc32)cc(OC)c1` [Compound 200], with ≥ 1000 nM. In the case of `O=C1/C(=N\O)c2c(Br)cccc2N1Cc1cc(F)cc2c1OCOC2` [Compound 201], the Ki is < 1000 nM. Then `O=C1/C(=N\O)c2c(-c3ccccc3)cccc2N1Cc1cc(F)cc2c1OCOC2` [Compound 202], with ≥ 1000 nM. With `O=C1/C(=N\O)c2c(-c3cccc(F)c3)cccc2N1Cc1cc(F)cc2c1OCOC2` [Compound 203], the Ki was ≥ 1000 nM. With `O=C1/C(=N\O)c2c(-c3ccc(F)cc3)cccc2N1Cc1cc(F)cc2c1OCOC2` [Compound 204], the Ki is ≥ 1000 nM. As to `O=C1/C(=N\O)c2c(-c3ccsc3)cccc2N1Cc1cc(F)cc2c1OCOC2` [Compound 205], the inhibition constant Ki is ≥ 1000 nM. Then `O=C1/C(=N\O)c2c(-c3cc4ccccc4o3)cccc2N1Cc1cc(F)cc2c1OCOC2` [Compound 206], with ≥ 1000 nM; and `O=C1/C(=N\O)c2ccc([N+](=O)[O-])cc2N1Cc1cc(F)cc2c1OCOC2` [Compound 207], with < 1000 nM; and `Nc1ccc2c(c1)N(Cc1cc(F)cc3c1OCOC3)C(=O)/C2=N\O` [Compound 208], with < 1000 nM.

On to `O=C1/C(=N\O)c2ccc(NO)cc2N1Cc1cc(F)cc2c1OCOC2` [Compound 209], for which the Ki was < 1000 nM. Under `CC(=O)Nc1ccc2c(c1)N(Cc1cc(F)cc3c1OCOC3)C(=O)/C2=N\O` [Compound 210] stands < 1000 nM.

As for `N#Cc1cccc2c1/C(=N/O)C(=O)N2Cc1cc(F)cc2c1OCOC2` [Compound 212], the Ki is ≥ 1000 nM. Consider `O=C1/C(=N\O)c2ccc(NS(=O)(=O)c3ccc(Cl)cc3)cc2N1Cc1cc(F)cc2c1OCOC2` [Compound 213], for which the Ki is ≥ 1000 nM. As to `COCC(=O)Nc1ccc2c(c1)N(Cc1cc(F)cc3c1OCOC3)C(=O)/C2=N\O` [Compound 214], the Ki is < 1000 nM.

`COC(=O)c1ccc2c(c1)N(Cc1cc(C)cc3c1OCOC3)C(=O)/C2=N\O` [Compound 215]: the Ki is < 1000 nM.

With `Cc1cc2c(c(CN3C(=O)/C(=N\O)c4ccc(C(=O)O)cc43)c1)OCOC2` [Compound 216], the Ki is < 1000 nM. On to `N#CCC(=O)Nc1ccc2c(c1)N(Cc1cc(F)cc3c1OCOC3)C(=O)/C2=N\O` [Compound 217], for which the Ki was < 1000 nM. Under `O=C(Nc1ccc2c(c1)N(Cc1cc(F)cc3c1OCOC3)C(=O)/C2=N\O)c1cc(=O)c2ccccc2o1` [Compound 218] stands ≥ 1000 nM; under `O=C(Cc1cccs1)Nc1ccc2c(c1)N(Cc1cc(F)cc3c1OCOC3)C(=O)/C2=N\O` [Compound 219], < 1000 nM; under `O=C(Cc1ccccc1F)Nc1ccc2c(c1)N(Cc1cc(F)cc3c1OCOC3)C(=O)/C2=N\O` [Compound 220], < 1000 nM. As to `O=C(Nc1ccc2c(c1)N(Cc1cc(F)cc3c1OCOC3)C(=O)/C2=N\O)c1cc2ccccc2o1` [Compound 221], the Ki was < 1000 nM. Consider `O=C(Nc1ccc2c(c1)N(Cc1cc(F)cc3c1OCOC3)C(=O)/C2=N\O)c1csc(C2COc3ccccc3O2)n1` (stereo not drawn) [Compound 222], for which the Ki was ≥ 1000 nM. Then `CN(C)CC(=O)Nc1ccc2c(c1)N(Cc1cc(F)cc3c1OCOC3)C(=O)/C2=N\O` [Compound 223], with ≥ 1000 nM; and `CCCC(=O)Nc1ccc2c(c1)N(Cc1cc(F)cc3c1OCOC3)C(=O)/C2=N\O` [Compound 224], with < 1000 nM; and `O=C(Nc1ccc2c(c1)N(Cc1cc(F)cc3c1OCOC3)C(=O)/C2=N\O)C1CCCC1` [Compound 225], with < 1000 nM. Under `O=C(Nc1ccc2c(c1)N(Cc1cc(F)cc3c1OCOC3)C(=O)/C2=N\O)c1ccco1` [Compound 226] stands < 1000 nM; under `O=C(NCc1ccc(F)cc1)c1ccc2c(c1)N(Cc1cc(F)cc3c1OCOC3)C(=O)/C2=N\O` [Compound 227], < 1000 nM. In the case of `O=C(c1ccc2c(c1)N(Cc1cc(F)cc3c1OCOC3)C(=O)/C2=N\O)N1CCOCC1` [Compound 228], the Ki is ≥ 1000 nM. Under `O=C(Nc1cccc(F)c1)c1ccc2c(c1)N(Cc1cc(F)cc3c1OCOC3)C(=O)/C2=N\O` [Compound 229] stands ≥ 1000 nM; under `COc1cc(CNC(=O)c2ccc3c(c2)N(Cc2cc(F)cc4c2OCOC4)C(=O)/C3=N\O)cc(OC)c1` [Compound 230], ≥ 1000 nM. Consider `COc1ccccc1CNC(=O)c1ccc2c(c1)N(Cc1cc(F)cc3c1OCOC3)C(=O)/C2=N\O` [Compound 231], for which the Ki was ≥ 1000 nM. Turning to `COc1ccc(CCNC(=O)c2ccc3c(c2)N(Cc2cc(F)cc4c2OCOC4)C(=O)/C3=N\O)cc1OC` [Compound 232], the inhibition constant (Ki) was ≥ 1000 nM.

Consider `Cc1ccccc1CNC(=O)c1ccc2c(c1)N(Cc1cc(F)cc3c1OCOC3)C(=O)/C2=N\O` [Compound 233], for which the Ki is ≥ 1000 nM. On to `O=C(NCc1cccc(Cl)c1)c1ccc2c(c1)N(Cc1cc(F)cc3c1OCOC3)C(=O)/C2=N\O` [Compound 234], for which the inhibition constant Ki is ≥ 1000 nM. Then `O=C(NCc1cc(Cl)ccc1Cl)c1ccc2c(c1)N(Cc1cc(F)cc3c1OCOC3)C(=O)/C2=N\O` [Compound 236], with ≥ 1000 nM; and `O=C(NCc1cccnc1)c1ccc2c(c1)N(Cc1cc(F)cc3c1OCOC3)C(=O)/C2=N\O` [Compound 237], with ≥ 1000 nM. Turning to `O=C(NCc1ccncc1)c1ccc2c(c1)N(Cc1cc(F)cc3c1OCOC3)C(=O)/C2=N\O` [Compound 238], the Ki was ≥ 1000 nM.

For the molecule `O=C(NCCc1ccccn1)c1ccc2c(c1)N(Cc1cc(F)cc3c1OCOC3)C(=O)/C2=N\O` [Compound 239], the Ki was ≥ 1000 nM. Then `O=C(NCCN1CCOCC1)c1ccc2c(c1)N(Cc1cc(F)cc3c1OCOC3)C(=O)/C2=N\O` [Compound 240], with ≥ 1000 nM. In the case of `CC(C)(C)NC(=O)c1ccc2c(c1)N(Cc1cc(F)cc3c1OCOC3)C(=O)/C2=N\O` [Compound 241], the Ki was ≥ 1000 nM. For `CCN(Cc1ccccc1)C(=O)c1ccc2c(c1)N(Cc1cc(F)cc3c1OCOC3)C(=O)/C2=N\O` [Compound 242], the inhibition constant (Ki) is ≥ 1000 nM. Then `CCC(NC(=O)c1ccc2c(c1)N(Cc1cc(F)cc3c1OCOC3)C(=O)/C2=N\O)c1ccccc1` (stereo not drawn) [Compound 243], with ≥ 1000 nM; and `COC(=O)c1cccc2c1/C(=N/O)C(=O)N2Cc1cc(F)cc2c1OCOC2` [Compound 244], with ≥ 1000 nM. `O=C(O)c1cccc2c1/C(=N/O)C(=O)N2Cc1cc(F)cc2c1OCOC2` [Compound 245]: the Ki was ≥ 1000 nM. As to `O=C1/C(=N\O)c2c(C#Cc3ccccc3)cccc2N1Cc1cc(F)cc2c1OCOC2` [Compound 246], the inhibition constant (Ki) is ≥ 1000 nM. Under `O=C(Nc1ccc2c(c1)N(Cc1cc(F)cc3c1OCOC3)C(=O)/C2=N\O)c1ccccc1` [Compound 247] stands < 1000 nM; under `O=C(Nc1ccc2c(c1)N(Cc1cc(F)cc3c1OCOC3)C(=O)/C2=N\O)c1ccc(F)cc1` [Compound 248], < 1000 nM; under `O=C(Nc1ccc2c(c1)N(Cc1cc(F)cc3c1OCOC3)C(=O)/C2=N\O)c1ccc(F)cc1F` [Compound 249], < 1000 nM.
